Data from patent US10905738B2, “Synthetic peptides, prodrugs, pharmaceutical compositions and uses” (Biozeus Desenvolvimento De Produtos Biofarmacêuticos, priority 2018, dated 2021).
Where a SMILES comes first, the peptide text is derived from it.

Experiments:
[1] = tested on: house dust mite (HDM) sensitized A/J mice; format: in vivo, Male A/J mice; conditions: 10 nMol and 30 nMol per animal, 6 h after intratracheal instillation
Experimental: Male A/J mice (18-20 g), were sensitized by house dust mite (HDM) to established acute allergic asthma according to the protocol of Haspelagh et al (HASPESLAGH, E., DEBEUF, N., HAMMAD, H., LAMBRECHT, B. N. Murine Models of Allergic Asthma. Methods Mol Biol, 1559:121-136. 2017). Inflammatory cell infiltrations in the bronchoalveolar lavage fluid (BALF) were analyzed by flow cytometry.
The mice (n=5 per group) were treated with vehicle (PBS), SEQ ID NO: 19, SEQ ID NO: 24 or PnTx(19), at doses of 10 nMol and 30 nMol per animal, by intratracheal instillation, and material were collected 6 hours post-challenge.

[2] = tested on: smooth muscle of pulmonary arteries; assay: relaxation of pulmonary arteries contracted with phenylephrine ex vivo; design: species or system male Wistar rats; conditions: n = 9; for pEC50: pulmonary arteries contracted with phenylephrine, peptides 1 nM-10 μM, mean±SEM; for Effectiveness (Emax) (%): relaxation percentage related to maximum phenylephrine contraction
From the text: The ex vivo model of pulmonary artery smooth muscle contraction with phenylephrine is very useful to screen candidate compounds for lung diseases that demand vasodilating effects (ALENCAR, A. K., PEREIRA, S. L., MONTAGNOLI, T. L., MAIA, R. C., KUMMERLE, A. E., LANDGRAF, S. S., CARUSO-NEVES, C., FERRAZ, E. B., TESCH, R., NASCIMENTO, J. H., DE SANT'ANNA, C. M., FRAGA, C. A., BARREIRO, E. J., SUDO, R. T., ZAPATA-SUDO, G. Beneficial effects of a novel agonist of the adenosine A2A receptor on monocrotaline-induced pulmonary hypertension in rats. Br J Pharmacol, 169: 953-62. 2013).
Rats were anesthetized with midazolam and ketamine (2 mg/kg and 100 mg/kg, respectively) via intraperitoneal administration. After infusion of a lethal dose of sodium thiopental via intraperitoneal administration (50 mg/kg), the trunk of the pulmonary artery was carefully removed via sternotomy. The pulmonary artery was carefully dissected and the connective tissue removed. The arteries were connected to a force transductor, positioned in vertical chambers filled with Krebs solution, oxygenated and kept at 37° C.
After a stabilization period of 2 hours at a tension of 1.5 grams, the arteries were exposed to increasing doses of phenylephrine (1 nM-10 μM) in order to obtain maximum smooth muscle contraction and then exposed to increasing doses of selected peptides in the concentrations of 1 nM-10 μM each (n=9). The tension generated by the pulmonary artery was evaluated at intervals of 5 minutes for each dose (ALENCAR, A. K., PEREIRA, S. L., MONTAGNOLI, T. L., MAIA, R. C., KUMMERLE, A. E., LANDGRAF, S. S., CARUSO-NEVES, C., FERRAZ, E. B., TESCH, R., NASCIMENTO, J. H., DE SANT'ANNA, C. M., FRAGA, C. A., BARREIRO, E. J., SUDO, R. T., ZAPATA-SUDO, G. Beneficial effects of a novel agonist of the adenosine A2A receptor on monocrotaline-induced pulmonary hypertension in rats. Br J Pharmacol 169: 953-62. 2013; ALENCAR, A. K., PEREIRA, S. L., DA SILVA, F. E., MENDES, L. V., CUNHA VDO, M., LIMA, L. M., MONTAGNOLI, T. L., CARUSO-NEVES, C., FERRAZ, E. B., TESCH, R., NASCIMENTO, J. H., SANT'ANNA, C. M., FRAGA, C. A., BARREIRO, E. J., SUDO, R. T., ZAPATA-SUDO, G. N-acylhydrazone derivative ameliorates monocrotaline-induced pulmonary hypertension through the modulation of adenosine AA2R activity. International Journal of Cardiology, 173(2): 154-62. 2014).
Potency values are shown as the negative logarithm of the concentration that reduced the voltage to 50% of the maximum phenylephrine-induced contraction (pEC50), and they are expressed as mean±SEM. The maximum contraction achieved in a given artery was considered to be 100% of contraction, and the effectiveness (Emax) was expressed as the relaxation percentage related to this maximum value. The results were calculated from at least 3 independent tests using the sigmoid non-linear regression equation, and the statistical analysis of the concentration curve was done by performing a nonlinear fit of the logarithmic of the agonist versus response. All the above calculations were performed on the software Graph Prism 5.0 (GraphPad Software, La Jolla, Calif., USA). Tension analysis was performed on the software LabChart7 (AD Instruments, Sydney, Australia). As a cutoff to determine biological significance, we considered pulmonary artery relaxation values above 30% as biologically relevant, considered those as active and then calculated the Emax values (SUN, C. K., LIN, Y. C., YUEN, C. M., CHUA, S., CHANG, L. T., SHEU, J. J., LEE, F. Y., FU, M., LEU, S., YIP, H. K. Enhanced protection against pulmonary hypertension with sildenafil and endothelial progenitor cell in rats. International journal of cardiology, 162(1): 45-58. 2012; ALENCAR, A. K., PEREIRA, S. L., DA SILVA, F. E., MENDES, L. V., CUNHA VDO, M., LIMA, L. M., MONTAGNOLI, T. L., CARUSO-NEVES, C., FERRAZ, E. B., TESCH, R., NASCIMENTO, J. H., SANT'ANNA, C. M., FRAGA, C. […]

SMILES | neutrophil accumulation in the bronchoalveolar space [1] | pEC50 [2] | Effectiveness (Emax) (%) [2]
CC[C@H](C)[C@H](NC(C)=O)C(=O)N[C@@H](C)C(=O)N[C@@H](Cc1c[nH]c2ccccc12)C(=O)N[C@@H](Cc1ccc(O)cc1)C(=O)N[C@@H](CCCCN)C(N)=O [SEQ ID NO: 24, Ac-Ile-Ala-Trp-Tyr-Lys-NH2] (Ac-IAWYK-NH2) | did not induce neutrophil accumulation | 4.4 ± 6.4 | 5% ± 5.96
CC[C@H](C)[C@H](NC(=O)[C@H](Cc1c[nH]c2ccccc12)NC(=O)[C@H](Cc1ccccc1)NC(C)=O)C(=O)N[C@@H](C)C(=O)N[C@@H](Cc1c[nH]c2ccccc12)C(=O)N[C@@H](Cc1ccc(O)cc1)C(=O)N[C@@H](CCCCN)C(=O)N[C@@H](CC(C)C)C(=O)N[C@@H](C)C(N)=O [SEQ ID NO: 19, Ac-Phe-Trp-Ile-Ala-Trp-Tyr-Lys-Leu-Ala-NH2] (Ac-FWIAWYKLA-NH2) | did not induce neutrophil accumulation | 6.9 ± 6.55 | 24% ± 9.71
